Experimental data published in patent US20210338672A1, “USE OF AN INHIBITOR OF AN ENT FAMILY TRANSPORTER IN THE TREATMENT OF CANCER AND COMBINATION THEREOF WITH AN ADENOSINE RECEPTOR ANTAGONIST” (iTeos Belgium SA, priority 2018, published 2021).
Structures can show the parent of a compound that is named as a salt.

Experiments:
[1] = test system: Human primary CD3+ T cells; assay: TNFα secretion by CD3+ T cells (AlphaLISA); details: 100 μM ATP; for Reversal of inhibition of T cells in the presence of ATP, A2A receptor antagonist in combination with dipyridamole: FIG. 5A-C (viability, CD8+ proliferation, TNFα), with dipyridamole 1 μM, Compound 8a 300 nM, NIR178 5 μM, CPI-444 5 μM, AZD4635 1 μM, AB928 1 μM
Protocol: Human primary CD3+ T cells were stimulated with antiCD3/antiCD28-coated microbeads, and treated with 100 μM ATP or control medium. Viability of CD3+ T cells (FIG. 5A) and proliferation of CD8+ T cells (FIG. 5B) were analysed by flow cytometry after a 3 days incubation period. TNFα secretion in the supernatant was analysed by AlphaLISA. Grey shaded bars show A2AR antagonist treated wells, whilst clear bars denote concentration-matched DMSO treated wells. […] Data shown are representative of data obtained in three healthy individuals in 4 independent experiments.
Venous blood from healthy volunteers, all of whom signed an informed consent approved by the Ethics Committee (FOR-UIC-BV-050-01-01 ICF_HBS_HD Version 5.0), was obtained via Unité d'Investigation Clinique (Centre Hospitalier Universitaire de Tivoli, La Louviere, Belgium). Mononuclear cells were collected by density gradient centrifugation, using SepMate-50 tubes and Lymphoprep according to the manufacturer's instructions. CD3+ T cells were isolated by immunomagnetic negative selection, using the EasySep Human T Cell Isolation Kit as per manufacturer's instructions. CD3+ T cells were stored in heat inactivated FBS and 10% DMSO in liquid nitrogen.
Human purified CD3+ T cells were thawed and washed twice with RPMI1640 medium, UltraGlutamine, supplemented with 1× non-essential amino acids (Lonza), and 1 mM Sodium Pyruvate (Gibco) (complete media), containing 10% hiFBS. After the final wash, cells were resuspended in PBS containing 10% FBS, and labeled using 3 μM CFSE during 5 min at room temperature, followed by two wash steps in complete media. After the last wash, cells were suspended at 1.6×10^6 cells/mL in X-Vivol5 medium. 50 μL of cell suspension (8×10^4 T cells) was added to wells of sterile round-bottom 96-well plates. Cells were activated by adding 50 μL of anti-CD3 anti-CD28 coated microbeads (Dynabeads human T-activator CD3/CD28), suspended in X-Vivo15 medium, at a ratio of one microbead per two cells. […] The final concentration of DMSO in the assay was 0.05%, and the final assay volume was 200 μL. Experiments were performed in biological duplicate, and DMSO control was added in quadruplicate. The cells were placed in a 37° C. humidified tissue culture incubator with 5% CO2 for 72 hours. After 72 hours, the cells were pelleted by centrifugation at 1600 rpm for 5 minutes, and supernatants were transferred to V-bottom 96-well plates for cytokine quantification. Cell pellets were resuspended in FACS buffer (see below) for flow cytometry analysis.
Supernatants were centrifuged at 4000 rpm for 10 minutes, and IL-2 was quantified using the IL-2 (human) AlphaLISA Biotin-Free Detection Kit, and TNFα was quantified using the AlphaLISA Human TNFα Biotin-Free Detection Kit, according to the manufacturer's instructions.

[2] = test system: Human primary CD3+ T cells; details: 25 μM adenosine or 200 μM ATP, 3 days; for Restoration of adenosine- and ATP-mediated suppression of IL-2 secretion: single agent, Compound 8a at 300 nM; for T cell cytokine secretion (IL-2), effect of adenosine or ATP: anti-CD3/CD28-stimulated CD3+ T cells
Protocol: CD3+ T cells were stimulated with antiCD3/antiCD28-coated microbeads, and treated with 25 μM adenosine (FIG. 4A) or 200 μM ATP (FIG. 4B). IL-2 secretion in the supernatant was analysed by AlphaLISA after a 3 days incubation period. […] Representative data for 1 healthy donor are shown.
(§1) PBMC and CD3+ T cell isolation. Venous blood from healthy volunteers, all of whom signed an informed consent approved by the Ethics Committee (FOR-UIC-BV-050-01-01 ICF_HBS_HD Version 5.0), was obtained via Unité d'Investigation Clinique (Centre Hospitalier Universitaire de Tivoli, La Louviere, Belgium). Mononuclear cells were collected by density gradient centrifugation, using SepMate-50 tubes and Lymphoprep according to the manufacturer's instructions. CD3+ T cells were isolated by immunomagnetic negative selection, using the EasySep Human T Cell Isolation Kit as per manufacturer's instructions. CD3+ T cells were stored in heat inactivated FBS and 10% DMSO in liquid nitrogen.
(§2) Human primary T cell culture. Human purified CD3+ T cells were thawed and washed twice with RPMI1640 medium, UltraGlutamine, supplemented with 1× non-essential amino acids (Lonza), and 1 mM Sodium Pyruvate (Gibco) (complete media), containing 10% hiFBS. After the final wash, cells were resuspended in PBS containing 10% FBS, and labeled using 3 μM CFSE during 5 min at room temperature, followed by two wash steps in complete media. After the last wash, cells were suspended at 1.6×10^6 cells/mL in X-Vivol5 medium. 50 μL of cell suspension (8×10^4 T cells) was added to wells of sterile round-bottom 96-well plates. Cells were activated by adding 50 μL of anti-CD3 anti-CD28 coated microbeads (Dynabeads human T-activator CD3/CD28), suspended in X-Vivo15 medium, at a ratio of one microbead per two cells. […] The final concentration of DMSO in the assay was 0.05%, and the final assay volume was 200 μL. Experiments were performed in biological duplicate, and DMSO control was added in quadruplicate. The cells were placed in a 37° C. humidified tissue culture incubator with 5% CO2 for 72 hours. After 72 hours, the cells were pelleted by centrifugation at 1600 rpm for 5 minutes, and supernatants were transferred to V-bottom 96-well plates for cytokine quantification. Cell pellets were resuspended in FACS buffer (see below) for flow cytometry analysis.
Cytokine quantification. Supernatants were centrifuged at 4000 rpm for 10 minutes, and IL-2 was quantified using the IL-2 (human) AlphaLISA Biotin-Free Detection Kit, and TNFα was quantified using the AlphaLISA Human TNFα Biotin-Free Detection Kit, according to the manufacturer's instructions.

[3] = test system: Human primary CD3+ T cells; assay: Proliferation of CD4+ and CD8+ T cells (CFSE dilution, flow cytometry); details: 3 days; for Restoration of adenosine- and ATP-mediated suppression of T cell proliferation: single agent, Compound 8a at 300 nM; for Restoration of adenosine- and ATP-mediated suppression of T cell proliferation / T cell proliferation, effect of adenosine or ATP: 25 μM adenosine or 200 μM ATP; for T cell proliferation, effect of adenosine or ATP: anti-CD3/CD28-stimulated CD3+ T cells
Protocol: Human primary CD3+ T cells were stimulated with antiCD3/antiCD28-coated microbeads, and treated with 25 μM adenosine (FIGS. 3A and 3C) or 200 μM ATP (FIGS. 3B and 3D). Proliferation of CD4+(FIGS. 3A and 3B) and CD8+(FIGS. 3C and 3D) T cells was analysed by flow cytometry after a 3 days incubation period.
(§3) Human primary CD3+ T cells were stimulated with antiCD3/antiCD28-coated microbeads, and treated with 100 μM ATP or control medium. Viability of CD3+ T cells (FIG. 5A) and proliferation of CD8+ T cells (FIG. 5B) were analysed by flow cytometry after a 3 days incubation period.
as §1
Human primary T cell culture. Human purified CD3+ T cells were thawed and washed twice with RPMI1640 medium, UltraGlutamine, supplemented with 1× non-essential amino acids (Lonza), and 1 mM Sodium Pyruvate (Gibco) (complete media), containing 10% hiFBS. After the final wash, cells were resuspended in PBS containing 10% FBS, and labeled using 3 μM CFSE during 5 min at room temperature, followed by two wash steps in complete media. After the last wash, cells were suspended at 1.6×10^6 cells/mL in X-Vivol5 medium. 50 μL of cell suspension (8×10^4 T cells) was added to wells of sterile round-bottom 96-well plates. Cells were activated by adding 50 μL of anti-CD3 anti-CD28 coated microbeads (Dynabeads human T-activator CD3/CD28), suspended in X-Vivo15 medium, at a ratio of one microbead per two cells. […] The final concentration of DMSO in the assay was 0.05%, and the final assay volume was 200 μL. Experiments were performed in biological duplicate, and DMSO control was added in quadruplicate. The cells were placed in a 37° C. humidified tissue culture incubator with 5% CO2 for 72 hours. […] Cell pellets were resuspended in FACS buffer (see below) for flow cytometry analysis.
(§4) Flow cytometry. Cells were washed with FACS buffer (PBS containing 2 mM EDTA and 0.1% BSA) and stained with surface marker antibodies and viability dye for 20 min on ice. Cells were washed twice with FACS buffer and data acquired using an LSRFortessa (BD biosciences). Analysis was performed using FlowJo software (Treestar).

[4] = test system: Human primary CD3+ T cells; assay: Viability of stimulated human primary CD3+ T cells (flow cytometry, fixable viability dye); details: 3 days; for Restoration of adenosine- and ATP-mediated suppression of T cell viability: single agent, Compound 8a at 300 nM; for Restoration of adenosine- and ATP-mediated suppression of T cell viability / T cell viability, effect of adenosine or ATP: 25 μM adenosine or 200 μM ATP; for T cell viability, effect of adenosine or ATP: anti-CD3/CD28-stimulated CD3+ T cells
Protocol: Human primary CD3+ T cells were stimulated with antiCD3/antiCD28-coated microbeads, and treated with 25 μM adenosine (FIG. 2A) or 200 μM ATP (FIG. 2B). T cell viability was analysed by flow cytometry after a 3 days incubation period.
as §3
PBMC and CD3+ T cell isolation. […] Mononuclear cells were collected by density gradient centrifugation, using SepMate-50 tubes and Lymphoprep according to the manufacturer's instructions. CD3+ T cells were isolated by immunomagnetic negative selection, using the EasySep Human T Cell Isolation Kit as per manufacturer's instructions. CD3+ T cells were stored in heat inactivated FBS and 10% DMSO in liquid nitrogen.
as §2, §4

[5] = test system: LPS induced TNFalpha production; assay: In vivo LPS induced TNFalpha production in mouse (serum ELISA); details: BALB/c mice; 20 mg/kg p.o. 1 h before LPS; p=0.008
Protocol: BALB/c mice were pretreated for 1 h before LPS (1 mg/kg I.V) injection with NBMPR (20 mg/kg p.o.) or vehicle. […] One hour after LPS treatment, blood serum was collected from the mice. TNFalpha levels were determined by ELISA (n=5).
After 30 minutes, mice were treated with NBMPR p.o. at 20 mg/kg. 60 minutes later, mice were treated with LPS and blood was drawn for TNFalpha measurement in the serum, by ELISA.

MCA205 tumor = assay: Mouse syngeneic MCA205 fibrosarcoma tumor model; format: in vivo; details: C57BL/6 mice; 20 mg/kg p.o. BID for 22 days; p=0.0043
Excerpt: FIG. 7A is a graph representing the median tumor volume over time after subcutaneous inoculation of tumor cells.
MCA205 tumor cells were inoculated subcutaneously into the right flank of C57BL/6 mice. When tumors reached an average size of about […], mice were randomly allocated into groups.

Row | Structure (SMILES) | Reversal of inhibition of T cells in the presence of ATP, A2A receptor antagonist in combination with dipyridamole [1] | Restoration of adenosine- and ATP-mediated suppression of IL-2 secretion [2] | Restoration of adenosine- and ATP-mediated suppression of T cell proliferation [3] | Restoration of adenosine- and ATP-mediated suppression of T cell viability [4] | also measured
1 | Nc1nc(-n2cccn2)nc(-n2cccn2)c1Br [NIR178, 5-bromo-2,6-di-(1H-pyrazol-1-yl)pyrimidin-4-amine] | reversed |  |  |  | 
2 | CCCSc1nc(N[C@@H]2C[C@H]2c2ccc(F)c(F)c2)c2nnn([C@@H]3C[C@H](OCCO)[C@@H](O)[C@H]3O)c2n1 [ticagrelor] |  | none of the ENT inhibitors rescued | restored | restored | 
3 | Nc1ncnc2c1ncn2[C@@H]1O[C@H](CO)[C@@H](O)[C@H]1O [Adenosine] |  |  |  |  | T cell cytokine secretion (IL-2), effect of adenosine or ATP [2]: profoundly suppressed; T cell proliferation, effect of adenosine or ATP [3]: profoundly suppressed; T cell viability, effect of adenosine or ATP [4]: strongly reduced
4 | OCCN(CCO)c1nc(N2CCCCC2)c2nc(N(CCO)CCO)nc(N3CCCCC3)c2n1 [dipyridamole] |  | none of the ENT inhibitors rescued | restored | restored | Reversal of ATP inhibition of CD8+ T cell proliferation ([3]; 100 μM ATP, dipyridamole 1 μM): completely reversed; Reversal of ATP-reduced T cell viability ([4]; 100 μM ATP, dipyridamole 1 μM): completely reversed
5 | Cc1cc(-c2nnc(N)nc2-c2ccc(F)cc2)cc(Cl)n1 [AZD4635, 6-(2-chloro-6-methylpyridin-4-yl)-5-(4-fluorophenyl)-1,2,4-triazin-3-amine] | reversed |  |  |  | 
6 | Cc1ccc(-c2nc(N)nc3c2nnn3Cc2cccc(CO[C@H]3CCOC3)n2)o1 [CPI-444, (S)-7-(5-methylfuran-2-yl)-3-((6-(([tetrahydrofuran-3-yl]oxy)methyl)pyridin-2-yl)methyl)-3H-[1,2,3]triazolo[4,5-d]pyrimidin-5-amine] | reversed |  |  |  | 
7 | Nc1ncnc2c1ncn2[C@@H]1O[C@H](COP(=O)([O-])OP(=O)([O-])OP(=O)(O)O)[C@@H](O)[C@H]1O.O.[Na+].[Na+] [ATP, Adenosine 5′-triphosphate disodium salt hydrate] |  |  |  |  | T cell cytokine secretion (IL-2), effect of adenosine or ATP [2]: profoundly suppressed; Production of TNFα, effect of ATP ([1]; 3 days): significantly inhibited; CD8+ T cell proliferation, effect of ATP ([3]; 100 μM ATP): significantly inhibited; T cell proliferation, effect of adenosine or ATP [3]: profoundly suppressed; T cell viability, effect of ATP ([4]; 100 μM ATP): reduced; T cell viability, effect of adenosine or ATP [4]: strongly reduced
8 | Cc1c(C#N)cccc1-c1cc(-c2cn(Cc3cccc(C(C)(C)O)n3)nn2)nc(N)n1 [AB928, 3-(2-amino-6-(1-((6-(2-hydroxypropan-2-yl)pyridin-2-yl)methyl)-1H-1,2,3-triazol-4-yl)pyrimidin-4-yl)-2-methylbenzonitrile] | reversed |  |  |  | 
9 | O=[N+]([O-])c1ccc(CSc2ncnc3c2ncn3[C@@H]2O[C@H](CO)[C@@H](O)[C@H]2O)cc1 [NBMPR, 6-S-[(4-Nitrophenyl)methyl]-6-thioinosine] |  |  |  |  | Suppression of TNFalpha production after LPS, NBMPR on its own [5]: ~2 fold; Tumor growth compared to Vehicle, NBMPR single agent (MCA205 tumor): significant delay in tumor growth
10 | COc1cc(C(=O)OCCCN2CCCN(CCCOC(=O)c3cc(OC)c(OC)c(OC)c3)CC2)cc(OC)c1OC [dilazep hydrochloride] |  | none of the ENT inhibitors rescued | restored | restored | 
